Experiments:
F-actin = assay: Actin dynamics, fluorescence anisotropy assay in tumor cell cytosolic fraction; type: biochemical; parameters: Kobs: unit not given beside the values; details: for Kobs: rate constant of F-actin elongation; for actin polymerisation kinetics compared with normal NIH 3T3 cytosolic fraction: tumoral NIH 3T3 EF cytosolic fraction; for F actin steady state value (Δ mA max), effect in words / F actin elongation rate constant (Kobs), effect in words: added to assay medium, versus untreated; for F actin steady state value (Δ mA max), effect in words: NIH 3T3 EF cytosolic fraction or lysate, harmol at 10 µM
Description: Actin dynamics have been quantified in tumor cell cytosolic fraction using the fluorescence anisotropy assay which gains access to rate constant of F-actin elongation (kobs) and steady state concentration of F-actin (Δ mA max).
All reactions were carried out at 22°C and fluorescence anisotropy signal was recovered at 520 nm with excitation at 490 nm in a Beacon 2000 (Panvera). Alexa 488 actin (Molecular Probes) was centrifuged at 35 000 rpm for 2 h at 4°C to sediment residual actin polymers in a Beckman L5-50B ultracentrifuge. […] 80% of the supernatant was withdrawn; the concentration was defined through fluorescence measurements (excitation at 490 nm and signal recovering at 520 nm). The ultracentrifuged actin concentration was calculated using the non ultracentrifuged Alexa 488 actin as a standard. The supernatant was aliquoted, frozen in liquid nitrogen and stored at -80°C.
Before experiment, an aliquot of ultracentrifuged Alexa 488 actin was diluted to a concentration of 1 mg/ml in G buffer (5 mM Tris pH 8.1, 2 mM CaCl2, 0.2 mM DTT, 0.2 mM ATP). 3 µl of diluted Alexa 488 actin was mixed in 168 µl of G buffer and actin monomers anisotropy was measured before the addition of 4 µl of polymerisation buffer (2.5 M KCI, 50 mM MgCl2, 25 mM ATP), 5 µl of G buffer in the presence or in the absence of the chemical molecule and 20 µl cellular extract of normal NIH 3T3 cells or malignant NIH 3T3 EF cells at 2 mg/ml. The final concentration of Alexa 488 actin was 4 nM. The ratio of unlabelled to labelled actin was about 140/4 nM. Measurements were made each 10 sec for 200 sec. Actin monomers anisotropy value was subtracted, yielding the anisotropy enhancement (Δ mA). The data were fitted with the equation Y= Ymax . [1- exp(- K.X)]. The curves start at zero and ascend to Ymax that corresponds to the steady state anisotropy value (Δ mA eq), with a rate constant K. Y is anisotropy values of which monomers anisotropy is substracted and X is the time (Assessment of cellular actin dynamics by measurement of fluorescence anisotropy. Anal Biochem. 2007 Aug 1;367(1):95-103. Epub 2007 Apr 5. Spitz et al.).

NIH 3T3 EF [1] = assay: MTT assay (cellular viability); type: cell-based; details: Mus musculus, NIH3T3, 72 h, 3 days
Description: (§1) Growth studies were performed using the [3-(4,5 dimethylthiazol-2-yl)-2,5-diphenyl-2H-tetrazolium bromide] (Sigma) colorimetric assay.
(§2) About 1500 cells were seeded in a 96-well culture plate 24 hours before adding increasing concentrations of tested molecule. The plate was incubated at 37°C for 3 days. 10 µl MTT stock solution (5 mg/ml in phosphate buffer saline) was added to 90 µl of complete medium in each well, the incubation was continued for 3 h at 37°C. 100 µl of lysis buffer (10 % sodium dodecyl sulfate, 1% HCl 1N; pH 4.7) was added to each well, and the plate was incubated overnight. The absorbance was determined using an Integrated EIA Management System (Labsystem) at a wavelength of 570 nm. The proliferation rates were calculated from the OD readings using the untreated cells as 100%.

B16F10 [2] = assay: MTT assay (cellular viability); type: cell-based, Murine; details: for IC50: Mus musculus, B16-F10, 72 h, B16F10, 3 days
Description: as §1, §2

NIH 3T3 EF [3] = assay: Cloning assay, colony formation in semi solid medium (methylcellulose); type: cell-based; details: for inhibitory activity on NIH 3T3 EF colony formation in methylcellulose semi-solid medium: Figure 2; for IC50: Mus musculus, NIH3T3, 504 h, NIH 3T3 EF, 3 weeks, read-out: Inhibition of colony formation (methylcellulose) IC50
Description: (§3) Cells were embedded in complete culture medium supplemented with 0,8% methylcellulose (Methocel MC4000, Sigma), seeded in triplicate into 35-mm dishes (Greiner Bio-one Ref 627102, Dominique Dutscher) and incubated at 37 °C in a humidified 5% CO2 atmosphere.
(§4) The number of cells seeded was 1000 cells per dish. After one week (B16F10 cell line) to 3 weeks (NIH 3T3 EF cell line), macroscopic clones were counted.

B16F10 [4] = assay: as above; type: cell-based, Murine; details: for IC50: Mus musculus, B16-F10, 168 h, B16F10, one week, read-out: Inhibition of colony formation (methylcellulose) IC50
Description: as §3, §4

NIH 3T3 EF cells = assay: Rescue of F-actin network, FITC-phalloidin fluorescence microscopy; type: cell-based; details: non cytotoxic concentration (100 nM), three days, Figure 4
Description: Malignant NIH 3T3 EF cells were seeded onto glass cover slips at a density of 2000 cells per cm^2. The next day, tested molecules were applied to NIH 3T3 EF cells at various non cytotoxic concentrations. Three days later, cells were fixed for 10 min in PBS containing 3.7 % formaldehyde at 4°C before examination with a fluorescence microscope. The formaldehyde solution was neutralized with 50 mM NH4Cl. Permeabilisation was carried out for 4 min with 0.4% Triton X-100 in PBS. Cells were incubated for 1 h at room temperature with blocking buffer (3% bovine serum albumin in PBS) and then for 1 h with FITC-phalloidin (Sigma) which stabilizes structures by inhibiting phosphate release from ADP-Pi-actin filaments and allows visualization of actin filaments by fluorescence microscopy. The cover slips were mounted on microscope slides using a solution of glycerol 50%, DABCO 2.5% in PBS as embedding medium.

[5] = tested on: malignant NIH 3T3 EF cells; assay: Wound healing assay (cell motility); type: cell-based; details: NIH 3T3 EF, non cytotoxic concentration (25-100 nM), 10 h after wound formation, Figure 5
Description: (§5) Harmol dimers have been tested in a cell motility assay: the behaviour of tumoral cells treated by these dimers was compared with non-treated tumoral cells in a wound healing assay. Wound healing assay was performed to evaluate the effect of tested molecules on motility of malignant NIH 3T3 EF cells and melanoma cell line B16F10. About 100 000-200 000 cells were seeded in a 6-well culture plate and the tested molecule was added 24 hours later. Cells were grown for 3 days to confluence about 90-95% and small scratch-wounds (1 mm width) were made with a pipette tip. Cell debris were removed, then the cultures were incubated in complete medium for 10 h in the presence of the same concentration of the tested molecule. Then, the cells were fixed for 10 min in PBS containing 3.7% formaldehyde at 4°C.

[6] = tested on: melanoma cell line B16F10; assay: Wound healing assay (cell motility); type: cell-based, Murine; details: B16F10, non cytotoxic concentration (25-100 nM), 24 h after wound formation, Figure 6
Description: as §5, with “Cell debris were removed, then the cultures were incubated in complete medium for 10 h in the presence of the same concentration of the tested molecule.” left out

B16F10 tumor = assay: In vivo tumorigenicity assay, subcutaneous B16F10 tumor growth; parameters: species or system C57BU6 mice
Description: Female 6-8 week-old C57BU6 mice were provided by Harlan (Gannat, France).
Animals were housed in air-conditioned atmosphere, given food and water in standard conditions. One million B16F10 cells in 0.1 ml PBS were injected subcutaneously into the right flank of mice. Seven days after cells inoculation, it was possible to measure tumor volume (day 0). Thereafter, before drug administration, female C57BU6 mice were randomized to form 2 groups. […]
B16F10 tumor development was monitored for 2 weeks. The tumor size was estimated every fourth day by measuring the diameters of the tumors in two perpendicular dimensions using callipers. The volume of tumor (V) was calculated using the formula, V = 2W(U2)2 , where L and W were respectively the length and the width of tumor.
In vivo tumorigenicity assay was studied with harmine. […] In parallel, control mice were treated by one daily oral route administration of the vehicle.

[7] = 10 µM, NIH 3T3 EF extract, steady state concentration of F-actin (anisotropy enhancement)

Cc1nccc2c1[nH]c1cc(OCCCCCOc3ccc4c(c3)[nH]c3c(C)nccc34)ccc12 [BA016DD1172, 7,7'-[Pentane-1,5-diylbis(oxy)]bis(1-methyl-9H-β-carboline)]
Kobs (F-actin; 10 µM, NIH 3T3 EF extract): 0,179
Δ mA max (F-actin; [7]): 62
actin polymerisation kinetics compared with normal NIH 3T3 cytosolic fraction (F-actin; 10 µM): similar
F actin steady state value (Δ mA max), effect in words (F-actin): increased
F actin elongation rate constant (Kobs), effect in words (F-actin; NIH 3T3 EF cytosolic fraction): increased
IC50 (NIH 3T3 EF [1]): 300 nM
IC50 (B16F10 [2]): 400 nM
inhibitory activity on NIH 3T3 EF colony formation in methylcellulose semi-solid medium (NIH 3T3 EF [3]): marked inhibitory activity
IC50 (NIH 3T3 EF [3]): 50 nM
inhibitory activity on B16F10 colony formation in methylcellulose semi-solid medium (B16F10 [4]; Figure 3): marked inhibitory activity
IC50 (B16F10 [4]): 30 nM
reorganisation of the actin network in tumor cells (NIH 3T3 EF cells): able to reorganise the actin network
inhibition of malignant cell motility [5]: inhibited
inhibition of malignant cell motility [6]: inhibited
antitumor activity against B16 melanoma (B16F10 tumor; daily per os 100 mg/kg for five days, Figure 7): marked antitumor activity
tumoral growth inhibition (B16F10 tumor; day 7, daily per os 100 mg/kg for five days, versus control group, p = 0,0020): 48,5%

Cc1nccc2c1[nH]c1cc(O)ccc12 [harmol]
Δ mA max (F-actin; 10 µM, tumoral NIH3T3 EF cellular lysate): 42 mA
F actin steady state value (Δ mA max), effect in words (F-actin): No increase
cytotoxicity as measured by MTT test (B16F10 [2]; at 3 µM): non-cytotoxic concentration
inhibitory activity on B16F10 colony formation in methylcellulose semi-solid medium (B16F10 [4]; at 3 µM): did not display an inhibitory activity

Cc1nccc2c1[nH]c1cc(OCC3OC(C)(C)OC3COc3ccc4c(c3)[nH]c3c(C)nccc34)ccc12 (stereo not drawn) [BA016DD1183, 7,7'-[(2,2-dimethyl-1,3-dioxolane-4,5-diyl)bis(methyleneoxy)]bis(1-methyl-9H-β-carboline)]
Kobs (F-actin; 10 µM, NIH 3T3 EF extract): 0,158
Δ mA max (F-actin; [7]): 61
actin polymerisation kinetics compared with normal NIH 3T3 cytosolic fraction (F-actin; 10 µM): similar
F actin steady state value (Δ mA max), effect in words (F-actin): increased
F actin elongation rate constant (Kobs), effect in words (F-actin; NIH 3T3 EF cytosolic fraction): increased
IC50 (NIH 3T3 EF [1]): 1000 nM
IC50 (B16F10 [2]): 750 nM
inhibitory activity on NIH 3T3 EF colony formation in methylcellulose semi-solid medium (NIH 3T3 EF [3]): marked inhibitory activity
IC50 (NIH 3T3 EF [3]): 300 nM
inhibitory activity on B16F10 colony formation in methylcellulose semi-solid medium (B16F10 [4]; Figure 3): marked inhibitory activity
IC50 (B16F10 [4]): 125 nM
reorganisation of the actin network in tumor cells (NIH 3T3 EF cells): able to reorganise the actin network
inhibition of malignant cell motility [5]: inhibited
inhibition of malignant cell motility [6]: inhibited

COc1ccc2c3ccnc(C)c3n(CCCCCn3c4cc(OC)ccc4c4ccnc(C)c43)c2c1 [BA016FZ518, 9,9'-pentane-1,5-diylbis(7-methoxy-1-methyl-9H-β-carboline)]
Kobs (F-actin; 10 µM, NIH 3T3 EF extract): 0,104
Δ mA max (F-actin; [7]): 59
actin polymerisation kinetics compared with normal NIH 3T3 cytosolic fraction (F-actin; 10 µM): similar
F actin steady state value (Δ mA max), effect in words (F-actin): increased
F actin elongation rate constant (Kobs), effect in words (F-actin; NIH 3T3 EF cytosolic fraction): increased
IC50 (NIH 3T3 EF [1]): 750 nM
IC50 (B16F10 [2]): 3000 nM
inhibitory activity on NIH 3T3 EF colony formation in methylcellulose semi-solid medium (NIH 3T3 EF [3]): marked inhibitory activity
IC50 (NIH 3T3 EF [3]): 250 nM
inhibitory activity on B16F10 colony formation in methylcellulose semi-solid medium (B16F10 [4]; Figure 3): marked inhibitory activity
IC50 (B16F10 [4]): 40 nM
reorganisation of the actin network in tumor cells (NIH 3T3 EF cells): able to reorganise the actin network
inhibition of malignant cell motility [5]: inhibited
inhibition of malignant cell motility [6]: inhibited

Cc1nccc2c1[nH]c1cc(OCCCOc3ccc4c(c3)[nH]c3c(C)nccc34)ccc12 [BA016FZ527, 7,7'-[Propane-1,3-diylbis(oxy)]bis(1-methyl-9H-β-carboline)]
F actin steady state value compared with NIH 3T3 cytosolic fraction (F-actin; 10 µM, NIH 3T3 EF cytosolic fraction): higher
Kobs (F-actin; 10 µM, NIH 3T3 EF extract): 0,132
Δ mA max (F-actin; [7]): 83
F actin elongation rate constant compared with NIH 3T3 cytosolic fraction (F-actin; NIH 3T3 EF cytosolic fraction, BA016FZ527 at 10 µM, harmine concentration not given): higher
F actin steady state value (Δ mA max), effect in words (F-actin): increased
F actin elongation rate constant (Kobs), effect in words (F-actin; NIH 3T3 EF cytosolic fraction): increased
IC50 (NIH 3T3 EF [1]): 1000 nM
IC50 (B16F10 [2]): 1500 nM
inhibitory activity on NIH 3T3 EF colony formation in methylcellulose semi-solid medium (NIH 3T3 EF [3]): marked inhibitory activity
IC50 (NIH 3T3 EF [3]): 500 nM
inhibitory activity on B16F10 colony formation in methylcellulose semi-solid medium (B16F10 [4]; Figure 3): marked inhibitory activity
IC50 (B16F10 [4]): 175 nM
reorganisation of the actin network in tumor cells (NIH 3T3 EF cells): able to reorganise the actin network
inhibition of malignant cell motility [5]: inhibited
inhibition of malignant cell motility [6]: inhibited

— patent publication EP2050747A1, “Dimers of harmol or of its derivatives and uses thereof” (BioAlliance Pharma, priority 2007, dated 2009)
